The values below come from patent US10611778B2, “Fused bicyclic inhibitors of menin-MLL interaction” (Janssen Pharmaceutica NV, priority 2016, dated 2020).

Where “and” joins values, the source holds several entries; their conditions need not be identical. Equal values may be shown once. Read-outs that look alike come from different tables or passages of the source.

One assay has as its system MOLM14. The assay can be described thus: Proliferation assay (spheroid assay) MOLM14. In kind it is cell-based, human. Put shortly:
(§1)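 Cells were grown as spheroids in ultra-low attachment round-bottom wells with compound (0.3% DMSO) for 8 d at 37 °C, imaged every 4 h, with confluence as spheroid size. AUC of confluence versus time (t=0 baseline) was expressed as % of DMSO control, and absolute IC50 came from a least-squares nonlinear fit.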

In another assay the test system is MV-4-11. The assay can be described thus: Proliferation assay (spheroid assay) MV-4-11. In kind it is cell-based, human. In outline: as §1
A further assay deals with K562. Kind of assay: Proliferation assay (spheroid assay) K562 control cell line. The note with it: Homo sapiens. In kind it is cell-based. The protocol: The anti-proliferative effect of menin/MLL protein/protein interaction inhibitor test compounds was assessed in human leukemia cell lines. The cell lines MV-4-11 and MOLM14 harbor MLL translocations and express the MLL fusion proteins MLL-AF4 and MLL-AF9, respectively, as well as the wildtype protein from the second allele. […] K562 and KG1 were used as a control cell lines containing two MLL wildtype alleles in order to exclude compounds that display general cytotoxic effects.
MV-4-11 and MOLM14 were cultured in RPMI-1640 (Sigma Aldrich) supplemented with 10% fetal bovine serum (HyClone), 2 mM L-glutamine (Sigma Aldrich) and 50 μg/ml gentamycin (Gibco). K562 were propagated in RPMI-1640 (Sigma Aldrich) supplemented with 20% fetal bovine serum (HyClone), 2 mM L-glutamine (Sigma Aldrich) and 50 μg/ml gentamycin (Gibco). KG1 were cultured in Iscove's MDM (Gibco) supplemented with 20% fetal bovine serum (HyClone), 2 mM L-glutamine (Sigma Aldrich) and 50 μg/ml gentamycin (Gibco).
In order to assess the anti-proliferative effects, 1,500 MV-4-11, 300 MOLM14, 750 K562 or 1,300 KG1 cells were seeded in 200 μl media per well in 96-well round bottom, ultra-low attachment plates (Costar, catalogue number 7007). Cell seeding numbers were chosen based on growth curves to ensure linear growth throughout the experiment. Test compounds were added at different concentrations and the DMSO content was normalized to 0.3%. Cells were incubated for 8 d at 37° C. and 5% CO2. Spheroid like growth was monitored in real-time by live-cell imaging (IncuCyteZOOM, Essenbio, 4× objective) acquiring one image every four hours for 8 d. Confluence (%) as a measure of spheroid size was determined using an integrated analysis tool.
In order to determine the cumulative effect of the test compounds over time, the area under the curve (AUC) in a plot of confluence against time was calculated. Confluence at the beginning of the experiment (t=0) was used as baseline for the AUC calculation.
Absolute IC50 values were calculated according to the following procedure: % Control=(AUC sample/AUC control)*100
AUC control=mean AUC of control values (cells without compound/DMSO as vehicle control)
A non-linear curve fit was applied using the least squares (ordinary) fit method to the plot of % control versus compound concentration. Based on this, the absolute IC50 value (half maximal inhibitory concentration of the test compound causing an anti-proliferative effect of 50% relative to the vehicle control) was calculated.

The target of assay [1] is T1, Menin/MLL (menin, FITC-MBM1 peptide) (Homo sapiens, UniProt O00255, T541A).
T1 construct: 6xHis (C)
T1 sequence (O00255 with tags, fused parts or gaps T541A): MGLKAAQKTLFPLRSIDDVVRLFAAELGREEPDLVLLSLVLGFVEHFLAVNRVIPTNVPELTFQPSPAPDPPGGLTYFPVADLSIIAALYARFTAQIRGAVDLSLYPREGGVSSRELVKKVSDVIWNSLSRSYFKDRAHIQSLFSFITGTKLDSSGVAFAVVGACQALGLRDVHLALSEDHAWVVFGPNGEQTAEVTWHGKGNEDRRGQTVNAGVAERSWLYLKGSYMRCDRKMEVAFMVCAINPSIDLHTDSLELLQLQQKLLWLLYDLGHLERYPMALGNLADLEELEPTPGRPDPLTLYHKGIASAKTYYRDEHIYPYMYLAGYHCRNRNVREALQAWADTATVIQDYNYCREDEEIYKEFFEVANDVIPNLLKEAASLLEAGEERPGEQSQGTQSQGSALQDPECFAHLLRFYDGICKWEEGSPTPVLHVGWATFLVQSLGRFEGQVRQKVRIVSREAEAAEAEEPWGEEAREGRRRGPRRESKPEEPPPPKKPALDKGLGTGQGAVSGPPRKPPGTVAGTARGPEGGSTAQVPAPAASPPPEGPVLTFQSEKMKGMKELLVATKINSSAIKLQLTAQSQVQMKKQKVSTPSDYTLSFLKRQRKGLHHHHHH
Kind of assay: Menin/MLL fluorescence polarization (FP) assay. In kind it is binding. Put shortly:
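Compound pre-incubated 10 min with 100 nM menin (40 mM Tris-HCl pH 7.5, 50 mM NaCl, 1 mM DTT, 0.001% Tween 20), then 5 nM FITC-MBM1 peptide added for 15 min at ambient temperature; 0.625% DMSO final. FP read at ex 485/em 520 nm. IC50 from 11-point three-fold dilutions from 31 μM, % inhibition vs saturating-competitor controls.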

Setting [2] is: Homo sapiens, MOLM-14, MOLM14, averaged values over all measurements, read-out: Spheroid assay MOLM14 (IC50).
[3] abbreviates: Homo sapiens, MV4-11, MV-4-11, averaged values over all measurements, read-out: Spheroid assay MV-4-11 (IC50).
[4] abbreviates: K562 control cell line, averaged values over all measurements, read-out: Spheroid assay K562 (IC50).
Setting [5] is: averaged values over all measurements, read-out: Menin FP assay (IC50).

Consider `Fc1ccccc1CN1CC[C@H]2CN(c3ncnc4sc(CC(F)(F)F)cc34)CC[C@H]21` (single isomer, unassigned) [Compound 6], for which the IC50 was 3.3 µM with MOLM14 (setting [2]), 1.4 µM in the assay with MV-4-11 (setting [3]), 9 µM in the assay on K562 (setting [4]) and 0.21 µM in assay [1] (setting [5]).
For `FC(F)(F)Cc1cc2c(N3CCC4C(CCN4Cc4ccccc4)C3)ncnc2s1` (centres unmarked) [Compound 1] the same measures were 4.4 µM, 1.5 µM, 13.1 µM and 0.033 µM.
For the molecule `FC(F)(F)Cc1cc2c(N3CC[C@H]4[C@H](CCN4Cc4ccc[nH]4)C3)ncnc2s1` (single isomer, unassigned) [Compound 8], the IC50 is 5.7 µM and > 15 µM with MOLM14 (MOLM14, 8 d, individual measurements (not averaged), read-out: (2) Spheroid assay MOLM14 (IC50 (μM))); 2.1 µM in the assay with MV-4-11 (Homo sapiens, MV4-11, 192 h, MV-4-11, 8 d, individual measurements (not averaged), read-out: (2) Spheroid assay MV-4-11 (IC50 (μM))); 2.3 µM in the assay on MV-4-11 (MV-4-11, 8 d, individual measurements (not averaged), read-out: (2) Spheroid assay MV-4-11 (IC50 (μM))); over 15 µM with K562 (192 h, K562, 8 d, individual measurements (not averaged), read-out: (2) Spheroid assay K562 (IC50 (μM))); 0.101 µM in assay [1] (individual measurements (not averaged), read-out: (1) Menin FP assay (IC50 (μM))).
`FC(F)(F)Cc1cc2c(N3CCC4C3CCN4Cc3ccccc3)ncnc2s1` (centres unmarked) [Compound 2]: the 50% inhibitory concentration (IC50) was 9.8 µM in the assay with MOLM14 (setting [2]), 7.3 µM with MV-4-11 (setting [3]), over 15 µM in the assay with K562 (setting [4]) and 0.34 µM in assay [1] (setting [5]).
